Patent US7776823B2, “Human cathelicidin antimicrobial peptides” (priority 2003, dated 2010)
Ends that are not written are not given here.

Experiments:
Salmonella = Salmonella susceptibility to CRAMP; format: cell-based; conditions: 16 uM peptide; without NaHCO3
antigen presentation = experiment: Antigen presentation in vitro; format: cell-based
Staphylococcus aureus = experiment: S. aureus growth inhibition (turbidity OD600) with or without carbonate; format: cell-based; conditions: for Susceptibility of S. aureus: 16 uM peptide; for Effect of NaHCO3 on minimal inhibitory concentration (MIC) against Staph aureus: 20% TSB, 1 mM NaH2PO4, 50 mM NaHCO3, pH 7.4
Method: Carbonate was identified as the antimicrobial enhancing factor in mammalian tissue culture media via serial deletion of Minimal Essential Media (MEM) components. Staphylococcus aureus was cultured in 20% Tryptic Soy Broth (TSB), 10% Fetal Bovine Serum (FBS) and 70% of various media or media components with, or without, 32 μM LL-37 to assess which components could increase antimicrobial activity. MEM buffers are 2200 mg/L NaHCO3, 140 mg/L NaH2PO4 and 6800 mg/L NaCl. MEM salts are 200 mg/L CaCl2, 400 mg/L KCl, 98 mg/L MgSO4. All solutions were adjusted to pH 7.4. Bacterial growth was measured as the change in turbidity at OD600 and percent inhibition was determined by comparing bacterial growth in the presence of peptide to that in the absence of peptide. […]
Inhibition of Staph aureus growth in the presence of various concentrations of human (LL-37), murine (CRAMP) and porcine (PR-39). Cathelicidin antimicrobial peptides was measured in 20% TSB, 1 mM NaH2PO4, with, or without, 50 mM NaHCO3 at pH 7.4. […]

Group B Strep (GBS) = experiment: Group B Strep susceptibility to CRAMP; format: cell-based; conditions: 16 uM peptide; without NaHCO3
E. coli = E. coli susceptibility to CRAMP with or without NaHCO3; format: cell-based; conditions: 16 uM peptide
human erythrocytes = experiment: Hemolysis assay on human whole blood; format: cell-based
Method: Hemolysis Assay. Hemolytic activity was determined on human whole blood. Freshly obtained whole blood was washed 3× in PBS and resuspended in PBS at its original volume containing peptides at indicated concentrations. Samples were incubated at 37° C. for 1.5 to 3 h, and hemolysis determined by centrifuging at 300 g and measurement of the absorbance of the supernatant at 578 nm. Hemolytic activity of each peptide was expressed as the percentage of total hemoglobin released compared to that released by incubating with 0.1% Triton X-100.

[1] = system: wild-type S. aureus (clinical isolate); experiment: Radial diffusion assay against wild-type S. aureus; format: cell-based, Staphylococcus aureus; conditions: for Action against wild-type S. aureus compared to LL-37: synthetic peptides
Method: (§1) Antimicrobial assays. For screening of antimicrobial activity of HPLC fractions, radial diffusion assay was used. Lyophilized HPLC fractions were dissolved in DW (GibcoBRL, Grand Island, N.Y.), and tested against Staphylococcus aureus mprF. Thin plates (1 mm) of 1% agarose in 0.5% tryptone containing approximately […] of S. aureus mprF were used. 1 mm wells were punched in the plates and […] of samples dissolved in tissue culture grade sterile water were loaded in each well.
(§2) As a positive control, synthetic LL-37 was applied to separate wells. After incubation at 37° C. overnight, the inhibition zones were recorded by CCD camera and diameters measured. To evaluate antimicrobial activity against wild-type S. aureus (clinical isolate), and enteroinvasive E. coli 029, both radial diffusion and solution killing assays were done. Radial diffusion assays were done as described for S. aureus mprF. Solution killing was done in 10% TSB in 10 mM PB (TSB=30 gm/L Tryptic Soy Broth, Sigma, St Louis Mo.; 20×PB=27.6 g/L NaH2PO4-H2O, 53.65 g/L Na2HPO4-7H2O, pH 7.4). Bacteria in log-phase growth were suspended to 1×10^6 cells/ml, peptide added and incubated at 37° C. for 2 hr. Bacteria were then plated on TSB agar (TSB, Bactoagar 13 g/L, Becton Dickinson, Sparks Md.) for direct colony count and determination of CFU.

[2] = system: Group A Streptococcus (NZ131); format: cell-based
Method: as §2
(§3) Activity against Group A Streptococcus (NZ131) was done only in solution assay as described. To evaluate antimicrobial activity in high salt conditions, solution assay was done in 10% TSB/10 mM PBS with several salt concentrations (concentration of NaCl; 10, 50, 100, 150, 300, 500 mM). Action against the C. albicans was determined in Dixon medium (0.6% Peptone, 4% Malt Extract, 1% Glucose, 0.1% Ox Bile, 1% Tween-80) in sterile 96-well microtiter plates (Corning Inc., Corning, N.Y.) at a final volume of […]. The assay mixtures contained 1-2.5×10^4 […] freshly grown Candida, 20% Dixon medium, 0.6 mM phosphate buffer pH 7, and […] chloramphenicol. Microtiter plates were incubated at 37° C. for 24 h with peptides, then plated on Dixon agar to determine the MFC (minimum fungicide concentration).

C. albicans ATCC 14053 = experiment: Liquid assay against C. albicans (minimum fungicide concentration); format: cell-based, Candida albicans; conditions: for Fungicidal activity against Candida albicans compared to LL-37: synthetic peptides
Method: as §3

[3] = system: enteroinvasive E. coli 029; experiment: Radial diffusion assay against E. coli 029; format: cell-based; conditions: for Action against E. coli compared to LL-37: synthetic peptides
Method: as §1, §2

[4] = system: Staphylococcus aureus mprF; experiment: Radial diffusion assay against S. aureus mprF; format: cell-based
Method: as §1, §2

S. aureus = experiment: Release of cytoplasmic beta-galactosidase (membrane disruption); format: cell-based; conditions: with carbonate versus without
Source text: Release of cytoplasmic expressed beta-galactosidase was measure from bacteria with and without the addition of NaHCO3.

CRAMP
Susceptibility of Salmonella (Salmonella): susceptible
Antigen presentation in vitro (antigen presentation): inhibits antigen presentation
Susceptibility of S. aureus (Staphylococcus aureus; with 50 mM NaHCO3): susceptible
Susceptibility of S. aureus (Staphylococcus aureus; without 50 mM NaHCO3): resistant
Effect of NaHCO3 on minimal inhibitory concentration (MIC) against Staph aureus (Staphylococcus aureus): greatly reduced
Susceptibility of Group B Strep (GBS) (Group B Strep (GBS)): susceptible
Susceptibility of E. coli (E. coli; with 50 mM NaHCO3): susceptible
Susceptibility of E. coli (E. coli; without 50 mM NaHCO3): resistant

KRIVQRIKDFLRNLVPRTES (listed as Homo sapiens) [KR-20, 20 amino acid cathelicidin derivative]
% hemolysis (human erythrocytes): 0%
Radial Diffusion Assay minimal inhibitory concentration (MIC), S. aureus (wt) [1]: >64 μm
Liquid Assay minimal concentration required to kill GAS (NZ131) [2]: 4 μm
Liquid Assay minimal concentration required to kill C. albicans ATCC 14053 (C. albicans ATCC 14053): 10 μm
Fungicidal activity against Candida albicans compared to LL-37 (C. albicans ATCC 14053): increased fungicidal activity
Radial Diffusion Assay minimal inhibitory concentration (MIC), E. coli (029) [3]: >64 μm
Radial Diffusion Assay minimal inhibitory concentration (MIC), S. aurus MprF [4]: 16 μm

SSLLEKGLDGAKKAVGGLGKLGKDAVEDLESVGKGAVHDVKDVLDSV (listed as Homo sapiens) [DCD, dermcidin antimicrobial peptide of human sweat, reference compound]
Radial Diffusion Assay minimal inhibitory concentration (MIC), S. aureus (wt) [1]: >64 μm
Liquid Assay minimal concentration required to kill GAS (NZ131) [2]: >64 μm
Liquid Assay minimal concentration required to kill C. albicans ATCC 14053 (C. albicans ATCC 14053): >32 μm
Radial Diffusion Assay minimal inhibitory concentration (MIC), E. coli (029) [3]: >64 μm
Radial Diffusion Assay minimal inhibitory concentration (MIC), S. aurus MprF [4]: >64 μm

KSKEKIGKEFKRIVQRIKDFLRNLVPRTES [KS-30]
% hemolysis (human erythrocytes): .23%
Radial Diffusion Assay minimal inhibitory concentration (MIC), S. aureus (wt) [1]: 16 μm
Action against wild-type S. aureus compared to LL-37 [1]: greatly increased action
Liquid Assay minimal concentration required to kill GAS (NZ131) [2]: 4 μm
Liquid Assay minimal concentration required to kill C. albicans ATCC 14053 (C. albicans ATCC 14053): 2 μm
Fungicidal activity against Candida albicans compared to LL-37 (C. albicans ATCC 14053): increased fungicidal activity
Radial Diffusion Assay minimal inhibitory concentration (MIC), E. coli (029) [3]: 8 μm
Action against E. coli compared to LL-37 [3]: greatly increased action
Radial Diffusion Assay minimal inhibitory concentration (MIC), S. aurus MprF [4]: 8 μm

PR-39: porcine cathelicidin antimicrobial peptide (RRRPRPPYLPRPRPPPFFPPRLPPRIPPGFPPRFPPRFP; UniProt P80054 131-169, looked up)
Effect of NaHCO3 on minimal inhibitory concentration (MIC) against Staph aureus (Staphylococcus aureus): greatly reduced

Polymyxin B
Leakage of cytoplasmic protein (beta-galactosidase) from S. aureus (S. aureus): greater leakage

RKSKEKIGKEFKRIVQRIKDFLRNLVPRTES (listed as Homo sapiens) [RK-31, cathelicidin peptide generated from LL-37]
% hemolysis (human erythrocytes): 6%
Radial Diffusion Assay minimal inhibitory concentration (MIC), S. aureus (wt) [1]: 16 μm
Action against wild-type S. aureus compared to LL-37 [1]: greatly increased action
Liquid Assay minimal concentration required to kill GAS (NZ131) [2]: 8 μm
Liquid Assay minimal concentration required to kill C. albicans ATCC 14053 (C. albicans ATCC 14053): 4 μm
Fungicidal activity against Candida albicans compared to LL-37 (C. albicans ATCC 14053): increased fungicidal activity
Radial Diffusion Assay minimal inhibitory concentration (MIC), E. coli (029) [3]: 8 μm
Action against E. coli compared to LL-37 [3]: greatly increased action
Radial Diffusion Assay minimal inhibitory concentration (MIC), S. aurus MprF [4]: 8 μm
